Experimental data published in patent publication US12246081B2, “Deodorant compositions” (Conopco, Inc., priority 2017, dated 2025).

System: S. hominis B10 C-S β lyase
Experiment: Transformation of Cys-3M3SH to 3M3SH by purified S. hominis B10 C-S β lyase
Assay type: biochemical, Staphylococcus hominis
Details: for % inhibition: 2 mM Cys-3M3SH, 35° C. for 24 hours, relative to control without compound; for susceptibility of S. hominis C-S β-lyase to inhibition by classical inhibitors: qualitative statement, no concentration given
Excerpt: The compounds identified by present invention represent a new class of deodorant actives that can be screened by the method disclosed herein. The method uses an odour-generating C-S β-lyase, in particular S. hominis B10 C-S β-lyase. In accordance with the procedure detailed in Example 1, the medium of the screening method comprises a 20 millimolar concentration of the compound to be screened. The medium further comprises S. hominis C-S β-lyase enzyme and 2 millimolar Cys-3M3SH. Following an incubation at 35° C. for a period of 24 hours, the reduction in 3M3SH released by S. hominis C-S β-lyase from Cys-3M3SH is measured. Herein, the inhibition of 3M3SH level is relative to a control without any compound being screened. In preferred embodiments, following the procedure detailed in Example 1, the medium comprises a 10 millimolar concentration of compound to be screened. In further preferred embodiments, the concentration of the compound to be screened can be 5 millimolar, preferably 2 millimolar, more preferably 1 millimolar, most preferably 0.5 millimolar.
The deodorant actives affecting S. hominis C-S β lyase are identified by using the following procedure. The Cys-3M3SH used in the procedure may be obtained using a method described in Chem. Biodivers., 2, 2005, 705-716. The purified S. hominis B10 C-S β lyase was prepared by cloning the gene encoding this enzyme into Escherichia coli using methodology known in the art. Recombinant S. hominis B10 C-S β-lyase was then expressed in E. coli and purified by immobilised metal ion affinity chromatography. M9 salts are mixtures of 6 g/L Na2HPO4, 3 g/L KH2PO4, 0.5 g/L NaCl, adjusted to pH 7.0 with NaOH.
Glass reaction tubes were set up, each containing 2 mM Cys-3M3SH (dissolved in M9 salts), 50 μM pyridoxal phosphate, purified S. hominis B10 C-S β lyase to a final concentration of 10 μg/ml, and M9 salts (or, where appropriate, a test material dissolved in M9 salts at, for example, 20 mM) to adjust the volume to 500 μl. Enzyme only (C-S beta-lyase) and substrate only (Cys-3M3SH) reactions were also included in each experiment. The reactions were incubated with shaking at 35° C. for 24 hours. To measure released 3M3SH, each reaction vial was first centrifuged at 13,000 rpm for 2 minutes. A volume of 0.095 ml labelling solution, consisting of 0.080 ml dH2O, 0.010 ml Tris (pH 8.0) and 0.005 ml 5,5′-dithiobis-(2-nitrobenzoic acid) (DTNB) stock solution (50 mM sodium acetate, 2 mM DTNB, dissolved in dH2O) was added to each well of a micro-titre plate. 0.005 ml of each reaction supernatant was added to the wells of the micro-titre plate, which was then incubated at room temperature for 5 minutes. Absorbance (A412) values, which correlate with the concentration of 3M3SH present, were recorded using a spectrophotometer. […] In these cases, a HPLC analysis was carried out according to the methodology described in J. Pharm. Biomed. Anal. 2008; 48:1375-80 and FEMS Microbiol. Lett., 263(16), 2015, fnv111.

[1] = material concentration = 2 millimolar
[2] = material concentration = 20 millimolar

Compound: O=C(O)C1CSC2(CCC3(CC2)OCCO3)N1 (stereo not shown) [EX3, 1,4-dioxa-9-thia-12-azadispirol[4.2.4.2]tetradecane-11-carboxylic acid]
- % inhibition [1]: 32.3%
- % inhibition [2]: 80.6%

Compound: N[C@H](COCc1ccccc1)C(=O)O [C1, O-benzyl-D-serine, reference compound]
- % inhibition [1]: 0%
- % inhibition (material concentration = 2 millimolar, listed as Cl): does not present significant reduction of malodour
- % inhibition [2]: 8.2%

Compound: 1,8-Dioxa-4-azaspiro[4.5]decane-3-carboxylic acid(N-CBz protected) [EX17]
- % inhibition [1]: 54.1%

Compound: O=C(O)C1CSC(c2ccccc2O)N1 (stereo not shown) [EX12, 2-(2-hydroxy-pheny)-thiazolidine-4-carboxylic acid]
- % inhibition [1]: 46.5%
- % inhibition [2]: 100%

Compound: O=C(O)C1CSC2(CCCCC2)N1 (stereo not shown) [EX6, 1-thia-4-azaspiro[4.5]decane-3-carboxylic acid]
- % inhibition [1]: 90.9%
- % inhibition [2]: 100%

Compound: O=C(O)C1CSC(c2ccccc2)N1 (stereo not shown) [EX8, 2-phenylthiazolidine-4-carboxylic acid]
- % inhibition [1]: 12.3%
- % inhibition [2]: 95.9%

Compound: N[C@H]1CONC1=O [L-cycloserine, reference compound]
- susceptibility of S. hominis C-S β-lyase to inhibition by classical inhibitors: much less susceptible to inhibition

Compound: 1-oxa-4-azaspiro[4.5]decane-3-carboxylic acid(N-CBz protected) [EX16]
- % inhibition [1]: 30.3%

Compound: COc1ccc(C2NC(C(=O)O)CS2)cc1 (stereo not shown) [EX10, 2-(4-methoxyphenyl)-1,3-thiazolidine-4-carboxylic acid]
- % inhibition [1]: 24.5%
- % inhibition [2]: 88.2%

Compound: O=C(O)C1CSC2(CCN(Cc3ccccc3)CC2)N1 (stereo not shown) [EX7, 8-benzyl-1-thia-4,8-diazaspiro[4.5]decane-3-carboxylic acid]
- % inhibition [1]: 11.9%
- % inhibition [2]: 87.8%

Compound: CCCCCCC1NC(C(=O)O)CS1 (stereo not shown) [EX11, 2-hexyl-1,3-thiazolane-4-carboxylic acid]
- % inhibition [1]: 87.5%
- % inhibition [2]: 100%

Compound: C=CCOc1ccc(C2NC(C(=O)O)CS2)cc1 (stereo not shown) [EX9, 2-(4-(allyloxy)phenyl)-1,3-thiazolidine-4-carboxylic acid]
- % inhibition [1]: 39.7%
- % inhibition [2]: 100%

Compound: NOCC(=O)O [aminooxyacetic acid, reference compound]
- susceptibility of S. hominis C-S β-lyase to inhibition by classical inhibitors: much less susceptible to inhibition

Compound: COc1ccc(C2NC(C(=O)O)CS2)cc1O (stereo not shown) [EX1, 2-(3-hydroxy-4-methoxy-phenyl)-thiazolidine-4-carboxylic acid]
- % inhibition [1]: 34.9%
- % inhibition [2]: 100%

Compound: CCC(CC)C1NC(C(=O)O)CS1 (stereo not shown) [EX5, 2-(1-ethylpropyl)-4-thiazolidine-4-carboxylic acid]
- % inhibition [1]: 46%
- % inhibition [2]: 94.1%

Compound: 2-(2-furyl)1,3-thiazolide-4-carboxylic acid [EX4]
- % inhibition [1]: 20.8%
- % inhibition [2]: 80.4%

Compound: COc1cc(C2NC(C(=O)O)CS2)ccc1O (stereo not shown) [EX2, 2-(4-hydroxy-3-methoxyphenyl)-1,3-thiazolidine-4-carboxylic acid]
- % inhibition [1]: 32.9%
- % inhibition [2]: 100%
